Laboratory results as given in ChEMBL document CHEMBL1142789, “Carbonic anhydrase inhibitors: design of thioureido sulfonamides with potent isozyme II and XII inhibitory properties and intraocular pressure lowering activity in a rabbit model of glaucoma” (Bioorg Med Chem Lett, 2005).

Tests used:
Type in all cases: functional
[1] = system: Oryctolagus cuniculus; assay: Tested for the fall of intraocular pressure of glaucomatous rabbits, after treatment with one drop (50 uL) 2% solution at a pH 7.0, directly into the eye after 0 minutes of administration
[2] = system: Oryctolagus cuniculus; assay: Tested for the fall of intraocular pressure of glaucomatous rabbits, after treatment with one drop (50 uL) 2% solution at a pH 7.0, directly into the eye after 30 minutes of administration
[3] = system: Oryctolagus cuniculus; assay: Tested for the fall of intraocular pressure of glaucomatous rabbits, after treatment with one drop (50 uL) 2% solution at a pH 7.0, directly into the eye after 60 minutes of administration
[4] = system: Oryctolagus cuniculus; assay: Tested for the fall of intraocular pressure of glaucomatous rabbits, after treatment with one drop (50 uL) 2% solution at a pH 7.0, directly into the eye after 90 minutes of administration
[5] = system: Oryctolagus cuniculus; assay: Tested for the fall of intraocular pressure of glaucomatous rabbits, after treatment with one drop (50 uL) 2% solution at a pH 6.5, directly into the eye after 0 minutes of administration
[6] = system: Oryctolagus cuniculus; assay: Tested for the fall of intraocular pressure of glaucomatous rabbits, after treatment with one drop (50 uL) 2% solution at a pH 6.5, directly into the eye after 30 minutes of administration
[7] = system: Oryctolagus cuniculus; assay: Tested for the fall of intraocular pressure of glaucomatous rabbits, after treatment with one drop (50 uL) 2% solution at a pH 6.5, directly into the eye after 60 minutes of administration
[8] = system: Oryctolagus cuniculus; assay: Tested for the fall of intraocular pressure of glaucomatous rabbits, after treatment with one drop (50 uL) 2% solution at a pH 6.5, directly into the eye after 90 minutes of administration

SMILES: NCC(=O)NC(=S)NCCc1ccc(S(N)(=O)=O)cc1.[Cl-].[Na+]
- Activity [1]: 0 mmHg
- Activity [2]: 3 mmHg
- Activity [3]: 5.9 mmHg
- Activity [4]: 5.5 mmHg

SMILES: Cl.NS(=O)(=O)c1ccc(CC/N=C(\S)NNCCN2CCOCC2)cc1
- Activity [5]: 0 mmHg
- Activity [6]: 6.5 mmHg
- Activity [7]: 6.9 mmHg
- Activity [8]: 5.9 mmHg

SMILES: NC(=O)CC(N)C(=O)NC(=S)NCCc1ccc(S(N)(=O)=O)cc1.[Cl-].[Na+] (stereo unspecified)
- Activity [1]: 0 mmHg
- Activity [2]: 10 mmHg
- Activity [3]: 13 mmHg
- Activity [4]: 15.5 mmHg

SMILES: NC(Cc1ccccc1)C(=O)NC(=S)NCCc1ccc(S(N)(=O)=O)cc1.[Cl-].[Na+] (stereo unspecified)
- Activity [1]: 0 mmHg
- Activity [2]: 4 mmHg
- Activity [3]: 6.1 mmHg
- Activity [4]: 6.4 mmHg
